Assay results as given in patent publication EP2910557A1, “Enantiopure tetrasubstituted pyrrolidines as scaffolds for proteasome inhibitors and medicinal applications thereof” (Ikerchem, S.L., priority 2014, dated 2015).

How the values were obtained:
Assay in all cases: Cancer cell growth inhibition, 72 h treatment
Format in all cases: cell-based
[1] = test system: RAMOS; details: Homo sapiens, Hematologic RAMOS, Alamar Blue
Procedure: (§1) Cell culture-based assays were used to evaluate the ability of compounds of the invention to inhibit cancer cell growth.
(§2) Cells were obtained from the American Type Culture Collection (ATCC) and the European Collection of Cell Cultures. Cells were thawed in their appropriate media plus supplements (see table below). Cells were passaged at confluence by washing once in HBSS cation-free followed by a 3 minutes incubation with trypsin ([0.5 µg/ml]/EDTA [0.2 µg/ml]) (Gibco-BRL, 15400054) solution in HBSS at 37°C (except non-adherent cell lines - hematologic), and transferred to their appropriate media plus supplements. Prior to seeding at defined cell concentration, cells were recovered in medium, centrifuged, taken up in medium and counted.
(§3) All treatments were performed in triplicate. Experiments were carried out in 96-well cell culture plates (Cultek) and the cell lines seeded at the density mentioned in the table above and cultured at 37°C with 5% CO2. After 24h, media were supplemented by 100 µl/well of diluted test compound at variable final concentrations and incubated for 72 hours. Then, AlamarBlue® Reagent (Biosource DAL1100) was added to each well and incubated at 37°C for 4 hours. Relative fluorescent intensity that correlates with the number of living cells was read in a Cytofluor plate reader (Millipore) at 535/590 nm (Excitation/emission). After reading the AlamarBlue® signal, the hexosaminidase activitity was measured according to the following protocol: medium was removed and cells were washed once with PBS. 60 µl of substrate solution (p-nitrophenol-N-acetyl-beta-D-glucosaminide 7.5 mM [Sigma N-9376], sodium citrate 0.1 M, pH 5.0, 0.25% Triton X-1 00) was added to each well and incubated at 37°C for 1-2 hours; after this incubation time, a bright yellow colour appears; then, plates could be developed by adding 90 µl of developer solution (Glycine 50 mM, pH 10.4; EDTA 5 mM), and absorbance was recorded at 405 nm.
(§4) Note: In all cases assays were performed in Alamar Blue with the exception of those indicated (* = Hexosaminidase assay)

[2] = test system: HeLa; details: Homo sapiens, Cervical HeLa, Alamar Blue
Procedure: as §1, §2, §3, §4

[3] = test system: SK-BR-3; details: Homo sapiens
Procedure: as §1, §2, §3, §4

[4] = test system: HT-29; details: Homo sapiens, Colon cancer HT-29, Alamar Blue
Procedure: as §1, §2, §3, §4

[5] = test system: MDA-MB-435; details: Homo sapiens, Melanoma MDA-MB-435, Alamar Blue
Procedure: as §1, §2, §3, §4

[6] = test system: LoVo; details: Homo sapiens, Colon cancer LoVo, Alamar Blue
Procedure: as §1, §2, §3, §4

[7] = test system: NCI-H358; details: Homo sapiens, Lung cancer NCI-H358, Alamar Blue
Procedure: as §1, §2, §3, §4

[8] = test system: RWP-1
Procedure: as §1, §2, §3, §4

[9] = test system: LNCaP; details: Homo sapiens, Prostate cancer LNCaP, Alamar Blue
Procedure: as §1, §2, §3, §4

[10] = test system: T47D; details: Homo sapiens, Breast cancer T47D
Procedure: as §1, §2, §3, §4

[11] = test system: BxPC-3; details: Homo sapiens
Procedure: as §1, §2, §3, §4

[12] = test system: RCC 786-O; details: Homo sapiens, 786-0, Renal RCC 786-O, Alamar Blue
Procedure: as §1, §2, §3, §4

[13] = test system: 143b; details: Homo sapiens, Osteosarcoma 143b, Alamar Blue
Procedure: as §1, §2, §3, §4

[14] = test system: A431; details: Homo sapiens
Procedure: as §1, §2, §3, §4

[15] = test system: PC-3; details: Homo sapiens, Prostate cancer PC-3, Alamar Blue
Procedure: as §1, §2, §3, §4

[16] = test system: SK-Mel-28; details: Homo sapiens, Melanoma SK-Mel-28, Alamar Blue
Procedure: as §1, §2, §3, §4

[17] = test system: COLO 205; details: Homo sapiens
Procedure: as §1, §2, §3, §4

[18] = test system: PANC-1; details: Homo sapiens, Pancreatic cancer PANC-1, Alamar Blue
Procedure: as §1, §2, §3, §4

[19] = Breast cancer SK-BR-3, Alamar Blue
[20] = Pancreatic cancer BxPC-3, Alamar Blue
[21] = A-431, Epidermoid A431, Alamar Blue
[22] = Colon cancer COLO 205, Alamar Blue
[23] = Pancreatic cancer RWP-1, Alamar Blue
[24] = Pancreatic cancer BxPC-3, Hexosaminidase assay (*)

| Structure (SMILES) | EC50 [1] [µM] | EC50 [2] [µM] | EC50 [3, 19] [µM] | EC50 [4] [µM] | EC50 [5] [µM] | EC50 [6] [µM] | EC50 [7] [µM] | EC50 [9] [µM] | EC50 ([10]; Alamar Blue) [µM] | EC50 [11, 20] [µM] | EC50 [12] [µM] | EC50 [13] [µM] | EC50 [14, 21] [µM] | EC50 [15] [µM] | EC50 [16] [µM] | EC50 [17, 22] [µM] | EC50 [8, 23] [µM] | EC50 [11, 24] [µM] | EC50 [18] [µM] | other results |
| --- | --- | --- | --- | --- | --- | --- | --- | --- | --- | --- | --- | --- | --- | --- | --- | --- | --- | --- | --- | --- |
| CC(C)C[C@H](NC(=O)[C@@H]1N[C@H](c2ccccc2)[C@@H]([N+](=O)[O-])[C@@H]1c1ccccc1)B(O)O [Example 1, (R)-3-methyl-1-((2R,3R,4S,5R)-4-nitro-3,5-diphenylpyrrolidine-2-carboxamido)butylboronic acid] | 2.4 | 28 | 1.2 | 3.5 | 1 | 6.7 | 0.79 | 0.39 | 10 | 4.6 | 4.7 | 5 | 0.97 | 1.5 | 1.3 | 11 | – | – | – | EC50 ([8]; Pancreatic cancer RWP-1, Hexosaminidase assay (*)): 24 µM |
| CC(C)C[C@H](NC(=O)[C@H]1N[C@@H](c2ccccc2)[C@@H]([N+](=O)[O-])[C@@H]1c1ccccc1)B(O)O [Example 4, (R)-3-methyl-1-((2S,3R,4S,5S)-4-nitro-3,5-diphenylpyrrolidine-2-carboxamido)butylboronic acid] | 1 | 8.3 | 0.76 | 1.5 | 0.37 | 3.09 | 2.4 | 0.11 | 2.1 | 2.9 | 1.7 | 2 | 0.97 | 2.3 | 0.78 | 3.8 | 3.6 | – | – | – |
| CC(C)C[C@H](NC(=O)[C@@H]1N[C@H](c2ccccc2)[C@@H]([N+](=O)[O-])[C@@H]1c1ccc(F)cc1)B(O)O [Example 6, (R)-1-((2R,3R,4S,5R)-3-(4-fluorophenyl)-4-nitro-5-phenylpyrrolidine-2-carboxamido)-3-methylbutylboronic acid] | 2.4 | 54 | – | 27 | 1.1 | 15 | 3.3 | 1.8 | – | – | 12 | 1.9 | 0.1 | 7.1 | 13 | 2.4 | 4.4 | 5.8 | 14 | EC50 ([3]; Breast cancer SK-BR-3, Hexosaminidase assay (*)): 6 µM; EC50 ([10]; Hexosaminidase assay (*)): 21 µM |
| CC(C)C[C@H](NC(=O)[C@@H]1N[C@H](c2ccccc2)[C@@H]([N+](=O)[O-])[C@@H]1c1cccs1)B(O)O [Example 10, (R)-3-methyl-1-((2R,3R,4S,5R)-4-nitro-5-phenyl-3-(thiophen-2-yl)pyrrolidine-2-carboxamido)butylboronic acid] | 0.53 | 13 | 0.44 | 3.5 | 0.31 | 2.5 | 0.7 | 0.38 | 0.57 | – | 0.43 | 0.29 | – | 1.2 | 1.6 | 0.31 | 1.1 | 1.5 | 3 | EC50 ([14]; A-431, Epidermoid A431, Hexosaminidase assay (*)): 0.03 µM |
| CC(C)C[C@H](NC(=O)[C@@H]1N[C@H](c2ccccc2)[C@@H]([N+](=O)[O-])[C@@H]1c1ccco1)B(O)O [Example 11, (R)-1-((2R,3R,4S,5R)-3-(furan-2-yl)-4-nitro-5-phenylpyrrolidine-2-carboxamido)-3-methylbutylboronic acid] | 0.16 | 3.1 | 0.11 | 2.5 | 0.17 | 0.66 | 0.28 | 0.15 | 1.3 | – | 1 | 0.1 | 0.02 | 0.68 | 0.8 | 0.202 | 0.42 | 0.7 | 0.58 | – |
| CC(C)C[C@H](NC(=O)[C@@H]1N[C@H](c2ccc3ccccc3c2)[C@@H]([N+](=O)[O-])[C@@H]1c1ccccc1)B(O)O [Example 12, (R)-3-methyl-1-((2R,3R,4S,5R)-5-(naphthalen-2-yl)-4-nitro-3-phenylpyrrolidine-2-carboxamido)butylboronic acid] | 0.5 | 11 | 0.57 | 0.85 | 0.21 | 1.7 | – | 0.12 | – | 0.97 | 2.4 | 0.37 | 0.41 | 0.3 | 0.62 | 2.4 | – | – | – | EC50 ([10]; Hexosaminidase assay (*)): 7.1 µM |
| CC(C)C[C@H](NC(=O)[C@@H]1CCCN1)B(O)O [MG-319, {(R)-3-methyl-1-[(S)-pyrrolidine-2-carboxamido]butyl}boronic acid, reference compound] | 8.7 | 52 | 6.2 | 12.3 | 5.3 | 15 | 24 | 4.2 | 25 | 33 | 19 | 0.98 | 10 | 26 | 10 | – | – | – | – | EC50 ([17]; Colon cancer COLO 205, Hexosaminidase assay (*)): 1.9 µM |
